Assay results reported in BindingDB's records for doi:10.1021/jm00040a008 (Harvard Medical School, 1994).

Test: Tested in vitro for inhibitory concentration against CCRF-CEM human Leukemic lymphoblast by using DHFR as primary target

- IC50: 2.6 nM
Compound: CCC(Cc1cnc2nc(N)nc(N)c2n1)c1ccc(C(=O)N[C@@H](CCC(=O)O)C(=O)O)cc1 (stereo partly specified) [Edatrexate]
